pIC50: −log10 of the molar value.
Assays:
[1] = system: MAO-B versus MAO-A; assay: Selectivity of inhibition of MAO-B versus MAO-A in vitro (14C phenethylamine / 14C 5-hydroxytryptamine); format: biochemical; conditions: rat, brain mitochondria
Description: Mitochondria are prepared from rat brain by homogenation in phosphate buffer (0.1 M, pH 7.2) followed by differential centrifugation. The mitochondria are suspended in the same buffer, the test compound is added at the desired concentration, and the system is incubated. At different time intervals, aliquots are taken and MAO activity is measured using ^14 C p-tyramine (a mixed substrate) as the substrate (See A. Christmas et al., supra).
(C) The selectivity of a compound of Formula I with respect to inhibition of MAO-A and MAO-B can be determined by repeating the procedure of Part B and measuring the MAO activity using ^14 C 5-hydroxytryptamine (a preferred substrate for MAO-A) and ^14 C phenethylamine (a preferred substrate for MAO-B) as the substrate.

[2] = system: heart rate response to p-tyramine; assay: Cheese effect: potentiation of response to intraduodenal p-tyramine, anaesthetized rats; format: in vivo, male Sprague-Dawley rats; conditions: p-tyramine i.d.
Description: (§1) The following test procedures can be employed to assess the potential of a compound of Formula I for producing the "cheese effect": […]
(§2) Eighteen hours later the animals are anaesthetized with pentobarbitone (60 mg/kg i.p.), in some instances pithed, and in all cases set up for recording heart rate and blood pressure by standard techniques.

[3] = system: heart rate response to p-tyramine; assay: Cheese effect: potentiation of response to intravenous p-tyramine, pithed rats; format: in vivo, male Sprague-Dawley rats; conditions: p-tyramine i.v.
Description: as §1, §2

[4] = system: depression; conditions: in vivo; cited from earlier work
[5] = low dosages where preferential inhibition of MAO-B occurs; cited from earlier work
[6] = system: MAO-A and MAO-B; conditions: cited from earlier work
[7] = system: MAO; assay: Inhibition of MAO in vitro, partially purified rat brain mitochondria, 14C p-tyramine substrate; format: biochemical; conditions: tested as hydrochloride salt
Description: Inhibition of MAO--In vitro testing
(A) The ability of a compound of Formula I to inhibit MAO can be determined in vitro by the method of A. Christmas et al., Br. J. Pharmacol., 45, 490 (1972) in partially purified mitochondria from rat brain using ^14 C p-tyramine as the substrate. The MAO inhibitory activity of a compound is expressed as the "IC50 " value, which is the molar concentration required to produce 50% inhibition of the enzyme.

[8] = system: MAO-A; conditions: cited from earlier work
[9] = system: MAO-B; conditions: cited from earlier work

## NC/C(=C\F)CSc1ccccc1 [(E)-2-thiophenoxymethyl-3-fluoroallylamine]
[1]
  Ratio B:A (inhibitory activity against MAO-B versus MAO-A): 100

## CNC/C(=C/F)COc1ccc(Cl)cc1Cl [N-methyl (Z)-2-(2',4'-dichlorophenoxy)methyl-3-fluoroallylamine]
[1]
  Ratio B:A (inhibitory activity against MAO-B versus MAO-A): 100

## C#CCN(C)[C@H](C)Cc1ccccc1 [L-deprenyl, reference compound]
[2]; 0.1 mg/kg, in words
  Potentiation of heart rate response to p-tyramine: no effect
[2]; 1.0 mg/kg
  Potentiation of heart rate response to p-tyramine: 2.1 fold
[3]; 0.1 mg/kg
  Potentiation of heart rate response to p-tyramine: 1.3 fold
[3]; 1.0 mg/kg
  Potentiation of heart rate response to p-tyramine: 2.2 fold
[4]
  clinical antidepressant effect: clinically effective antidepressant agents
[5]
  cheese effect: not observed

## Cc1cc(C(=O)NNCc2ccccc2)no1 [isocarboxazid]
[6]
  preference in action upon MAO: not preferential

## NC/C(=C/F)COc1ccccc1 [(Z)-2-phenoxymethyl-3-fluoroallylamine]
[7]
  pIC50: 6.00

## NC/C(=C/F)CSc1ccccc1 [(Z)-2-thiophenoxymethyl-3-fluoroallylamine]
[1]
  Ratio B:A (inhibitory activity against MAO-B versus MAO-A): 1,000
[7]
  pIC50: 6.00

## N[C@@H]1C[C@H]1c1ccccc1 (relative stereo) [tranylcypromine]
[6]
  preference in action upon MAO: not preferential

## NC/C(=C/F)CSc1ccc(F)cc1 [(Z)-2-(4'-fluorothiophenoxy) methyl-3-fluoroallylamine]
[1]
  Ratio B:A (inhibitory activity against MAO-B versus MAO-A): 100

## C#CCN(C)CCCOc1ccc(Cl)cc1Cl [clorgyline, reference compound]
[2]; 0.1 mg/kg
  Potentiation of heart rate response to p-tyramine: 5.6 fold
[7]
  pIC50: 8.00
[3]; 0.1 mg/kg
  Potentiation of heart rate response to p-tyramine: 5.2 fold
[8]
  preferential inhibition of MAO-A: MAO-A is preferentially inhibited
[4]
  clinical antidepressant effect: clinically effective antidepressant agents

## NNCCc1ccccc1 [phenelzine]
[6]
  preference in action upon MAO: not preferential

## C#CCN(C)Cc1ccccc1 [pargyline]
[9]
  preferential inhibition of MAO-B: MAO-B is preferentially inhibited
[7]
  pIC50: 5.70
[4]
  clinical antidepressant effect: clinically effective antidepressant agents
[6]; lower versus higher dosages
  dose-dependence of selectivity: selective inhibitors at lower dosages, but are not selective inhibitors at higher dosages

Source: patent US4699928A, “Fluoroallylamine derivatives” (Merrell Dow Pharmaceuticals Inc., priority 1986, dated 1987)
